Values of other authors as cited in US8541630B2, “Process for producing dimethyl ether from methanol” (China Petroleum & Chemical Corporation, priority 2008, dated 2013).
Read-outs that look alike come from different tables or passages of the source.

- Solubility (solvent Acetone (25° C.)): 11.83 wt %
- Solubility (solvent Benzene (25° C.)): 15.29 wt %
- Solubility (solvent CCl4 (25° C.)): 16.33 wt %
- Solubility (solvent Chlorobenzene (106 kPa, 25° C.)): 18.56 wt %
- Solubility (solvent Gasoline, 0° C.): 19 wt %
- Solubility (solvent Gasoline, 25° C.): 7 wt %
- Solubility (solvent Gasoline, −40° C.): 64 wt %
- Solubility (solvent Methyl acetate (93.86 kPa, 25° C.)): 11.1 wt %
- Solubility (solvent Water (24° C.)): 35.3 wt %
Structure (SMILES): COC [DME, Dimethyl ether]
